Where two headings read alike, the source gives them in different places.
Tests used:
[1] = system: eIF2.GTP.Met-tRNAi ternary complex; experiment: ATF-4 assay (firefly/renilla luciferase ratio) in CRL-2351 cell line; format: cell-based, human; conditions: for maximal fold induction / EC (activity threshold of 5): Homo sapiens; for maximal fold induction: read-out: ATF-4 Amax: maximal activity, ratio of firefly over renilla luciferase expression; for EC (activity threshold of 5): read-out: ATF-4 C[5] (μM): concentration corresponding to an activity threshold of 5; for Cmax: read-out: ATF-4 Cmax (μM): concentration corresponding to the maximal activity
Excerpt: For example, reducing amount of the ternary complex increases translation of ATF-4, which results in elevated expression of CHOP mRNA and protein. Therefore, expression of endogenous CHOP mRNA and CHOP protein in KLN-tTA/pBISA-DL^(ATF-4) cells were utilized as secondary assays to validate N,N′-diarylurea compounds as modifiers of the eIF2.GTP.Met-tRNAi ternary complex. […] To rule out the possibility that the activity of N,N′-diarylurea compounds was confined to a single cell type, the effects of these compounds on the ternary complex assay and the expression of CHOP mRNA was assayed in CRL-2351, PC-3, CRL-2813 human breast, prostate, and melanoma cancer cell lines respectively. For the reporter gene assay, the three human cell lines were co-transfected with tTA expression vector and the pBISA-DL^(ATF-4) dual luciferase expression vector shown in FIG. 6. […] The expression of CHOP mRNA was assayed by real time PCR in the same cell lines treated with 5 or 20 μM of each compound.
Stable and transient transfection: Cells were seeded at the density of 10^5 in 60-mm (stable transfection) or 10^4 cells per well of 96-well plate (transient transfection) plates and transfected one day later using the Qiagen Transfectamine transfection kit. For selection of stable cell lines, transfected cells were transferred to 100-mm plates and selected with appropriate antibiotics.
Dual luciferase assay: Cells or minced tumors expressing firefly and renilla luciferases were lysed and the extracts assayed with a glow type dual luciferase assay kit, per manufacturer's instruction (Promega Inc., Madison, Wis.).

[2] = system: KLN mouse squamous cell carcinoma cells; experiment: Cell proliferation SRB assay, KLN; format: cell-based
Description: (§1) Reduced availability of the ternary complex causes inhibition of translation initiation and thereby of cell proliferation. […] The effects of N,N′-diarylureas on the proliferation KLN mouse squamous cell carcinoma, CRL-2351 human breast, CRL-2813 human melanoma, A549 human lung and PC-3 human prostate cancer cell lines were tested.
(§2) Cell Growth Assay: Cell Growth was Measured by the SRB Assay.

[3] = system: CRL-2813 human melanoma cells; experiment: Cell proliferation SRB assay, CRL-2813; format: cell-based
Description: as §1, with “tested. […]” for “tested.”
as §2

[4] = system: CRL-2351 human breast cancer cells; experiment: Cell proliferation SRB assay, CRL-2351; format: cell-based; conditions: Homo sapiens
Description: as §1, §2

[5] = system: A549 human lung cancer cells; experiment: Cell proliferation SRB assay, A549; format: cell-based; conditions: read-out: IC50 (μM), concentration that inhibits cell proliferation by 50%
Description: as §1, §2

[6] = system: PC-3 human prostate cancer cells; experiment: Cell proliferation SRB assay, PC-3; format: cell-based; conditions: read-out: IC50 (μM), concentration that inhibits cell proliferation by 50%
Description: as §1
To determine if N,N′-diarylureas inhibit cell proliferation by reducing the availability of the ternary complex, the effect of N,N′-diarylureas on proliferation of previously described transgenic PC-3 human prostate cancer cell lines expressing either the non-phosphorylatable eIF2α-S51A mutant or the eIF2α-WT was studied. […] Reducing the expression of HRI, the eIF2α kinase that mediates N,N′-diarylurea induced phosphorylation of eIF2α similarly abrogates the effect of these agents on cell proliferation (FIGS. 15C and 15D).
as §2

[7] = In vivo toxicity, seven day administration to mice; conditions: female nude mice, 100 or 200 mg/kg daily for seven days, observed 15 days
Description: Five female nude mice each were treated with 200 mg/kg, 100 mg/kg #1781 in 15 μl DMSO or 15 μl DMSO daily for seven days. Mice were observed daily for signs of toxicity and weighed every other day for total of 15 days and then necropsy was performed. The average body of each group is plotted against the time.
To study toxicity effects, mice were treated with various doses of compound #1781 or vehicle.

[8] = KLN cells, read-out: IC50 (μM) by SRB assay, KLN
[9] = CRL2813, 2813 cells, read-out: IC50 (μM) by SRB assay, 2813
[10] = 2351 cells, read-out: IC50 (μM) by SRB assay, 2351
[11] = KLN, read-out: IC50 (μM), concentration that inhibits cell proliferation by 50%
[12] = CRL2813, CRL-2813, read-out: IC50 (μM), concentration that inhibits cell proliferation by 50%
[13] = CRL-2351, read-out: IC50 (μM), concentration that inhibits cell proliferation by 50%

SMILES | Cmax [1] [µM] | IC50 [2, 8] [µM] | IC50 [3, 9] [µM] | IC50 [4, 10] [µM] | IC50 [2, 11] [µM] | IC50 [3, 12] [µM] | IC50 [4, 13] [µM] | IC50 [5] [µM] | IC50 [6] [µM] | maximal fold induction [1] | EC (activity threshold of 5) [1] [µM] | In vivo toxicity [7]
O=C(Nc1ccc(Cl)c(C(F)(F)F)c1)Nc1ccc(Cl)c(C(F)(F)F)c1 [Compound 2, 1,3-bis[4-chloro-3-(trifluoromethyl)phenyl]urea] | 2.5 | – | 1.7 | 2.8 | – | – | – | – | – | 11 | 1.5 | –
O=C(Nc1cc(C(F)(F)F)cc(C(F)(F)F)c1)Nc1cc(C(F)(F)F)cc(C(F)(F)F)c1 [Compound 3, 1,3-bis[3,5-bis(trifluoromethyl)phenyl]urea] | 2.5 | 3.9 | 0.1 | 0.6 | – | – | – | – | – | 11 | 1.5 | –
Cc1ccc(NC(=O)Nc2cc(C(F)(F)F)cc(C(F)(F)F)c2)cc1O [Compound 6, 3-[3,5-bis(trifluoromethyl)phenyl]-1-(3-hydroxy-4-methylphenyl)urea] | 5 | 13.5 | 1 | 3.2 | – | – | – | – | – | 13 | 3 | –
COc1cc(NC(=O)Nc2ccc(Cl)c(C(F)(F)F)c2)ccc1C [Compound 8] | 10 | 17.2 | 3 | 2.5 | – | – | – | – | – | 8 | 3 | –
COc1cc(NC(=O)Nc2cc(C(F)(F)F)cc(C(F)(F)F)c2)ccc1C [Compound 9] | 20 | 20 | 0.7 | 2.2 | – | – | – | – | – | 12 | < 2.5 | –
Cc1ccc(NC(=O)Nc2ccc(Cl)c(C(F)(F)F)c2)cc1OCCN(C)C [Compound 12, 3-[4-chloro-3-(trifluoromethyl)phenyl]-1-{3-[2-(dimethylamino)ethoxy]-4-methylphenyl}urea] | 10 | 12.3 | 2.8 | 2.5 | – | – | – | – | – | 7 | 7 | –
Cc1ccc(NC(=O)Nc2ccc(Cl)c(C(F)(F)F)c2)cc1OCCN1CCOCC1 [Compound 16, 3-[4-chloro-3-(trifluoromethyl)phenyl]-1-{4-methyl-3-[2-(morpholin-4-yl)ethoxy]phenyl}urea] | 10 | > 20 | 0.9 | 2.7 | – | – | – | – | – | 7 | 7 | –
Cc1ccc(NC(=O)Nc2cc(C(F)(F)F)cc(C(F)(F)F)c2)cc1OCCN1CCOCC1 [Compound 17, 3-[3,5-bis(trifluoromethyl)phenyl]-1-{4-methyl-3-[2-(morpholin-4-yl)ethoxy]phenyl}urea] | 10 | 18.6 | 0.8 | 2.3 | – | – | – | – | – | 9 | 3 | –
Cc1ccc(NC(=O)Nc2cc(C(F)(F)F)cc(C(F)(F)F)c2)cc1OCCN1CCNCC1 [Compound 25, 4-{2-[5-({[3,5-bis(trifluoromethyl)phenyl]carbamoyl}amino)-2-methylphenoxy]ethyl}piperazine-1,4-diium dichloride] | 10 | – | 3.1 | 5.2 | – | – | – | – | – | 10 | 6 | –
O=C(Nc1ccc(Cl)c(C(F)(F)F)c1)Nc1ccc2nnsc2c1 [Compound 1780] | – | – | – | – | 14.8 | 0.1 | 1.3 | 0.8 | 0.9 | – | – | –
O=C(Nc1ccc(Cl)c(Cl)c1)Nc1ccc2nnsc2c1 [Compound 1781] | – | – | – | – | 17.1 | 0.5 | 3 | 1.2 | 1.1 | – | – | no apparent in vivo toxicity

Further lines, with some results ahead:

Cmax [1] [µM] | IC50 [2, 8] [µM] | IC50 [3, 9] [µM] | IC50 [4, 10] [µM] | IC50 [2, 11] [µM] | IC50 [3, 12] [µM] | IC50 [4, 13] [µM] | IC50 [5] [µM] | IC50 [6] [µM] | SMILES | maximal fold induction [1] | EC (activity threshold of 5) [1] [µM] | In vivo toxicity [7]
5 | > 20 | 0.8 | 2.6 | – | – | – | – | – | O=C(Nc1ccc(Cl)c(Cl)c1)Nc1ccc(Cl)c(Cl)c1 [Compound 1, 1,3-bis(3,4-dichlorophenyl)urea] | 11 | 2 | –
20 | > 20 | 1.8 | 9 | – | – | – | – | – | Cc1ccc(NC(=O)Nc2ccc(Cl)c(Cl)c2)cc1O [Compound 4, 3-(3,4-dichlorophenyl)-1-(3-hydroxy-4-methylphenyl)urea] | 13 | 11 | –
10 | 20 | 1.6 | 9.3 | – | – | – | – | – | Cc1ccc(NC(=O)Nc2ccc(Cl)c(C(F)(F)F)c2)cc1O [Compound 5, 3-[4-chloro-3-(trifluoromethyl)phenyl]-1-(3-hydroxy-4-methylphenyl)urea] | 11 | 6 | –
– | > 20 | > 20 | 11 | – | – | – | – | – | COc1cc(NC(=O)Nc2ccc(Cl)c(Cl)c2)ccc1C [Compound 7] | – | – | –
20 | 13.5 | 5.3 | 5.8 | – | – | – | – | – | Cc1ccc(NC(=O)Nc2ccc(Cl)c(Cl)c2)cc1OCCN(C)C [Compound 11, 3-(3,4-dichlorophenyl)-1-{3-[2-(dimethylamino)ethoxy]-4-methylphenyl}urea] | 7.5 | 8 | –
10 | 20 | – | 2.4 | – | – | – | – | – | Cc1ccc(NC(=O)Nc2ccc(Cl)c(Cl)c2)cc1OCCN1CCOCC1 [Compound 15, 3-(3,4-dichlorophenyl)-1-{4-methyl-3-[2-(morpholin-4-yl)ethoxy]phenyl}urea] | 5.5 | 9 | –
10 | > 20 | 5.1 | 4.5 | – | – | – | – | – | Cc1ccc(NC(=O)Nc2ccc(Cl)c(Cl)c2)cc1OCCN1CCNCC1 [Compound 23, 4-[2-(5-{[(3,4-dichlorophenyl)carbamoyl]amino}-2-methylphenoxy)ethyl]piperazine-1,4-diium dichloride] | 7.5 | 7 | –
40 | > 20 | 1.8 | 2 | – | – | – | – | – | O=C(Nc1ccc(Cl)c(Cl)c1)Nc1ncccc1O [Compound 26] | 12 | 13 | –
40 | 12.5 | 0.8 | 1.2 | – | – | – | – | – | O=C(Nc1ccc(Cl)c(C(F)(F)F)c1)Nc1ncccc1O [Compound 27] | 6.5 | 10 | –
– | – | – | – | > 20 | 20 | 9.5 | > 20 | – | O=C(Nc1ccc(Cl)c(Cl)c1)Nc1cc([N+](=O)[O-])ccc1Cl [Compound 1527] | – | – | –
– | – | – | – | 8.5 | 0.3 | 0.1 | 1.3 | 1.4 | O=C(Nc1ccc(Cl)cc1)Nc1ccc2nonc2c1 [KM094748] | – | – | –

— patent US9421211B2, “N,N′-diarylurea compounds and N,N′-diarylthiourea compounds as inhibitors of translation initiation” (President and Fellows of Harvard College, priority 2009, dated 2016)
